Data published in publication PMC11337205, “Unraveling Interspecies Differences in the Phase I Hepatic Metabolism of Alternariol and Alternariol Monomethyl Ether: Closing Data Gaps for a Comprehensive Risk Assessment” (Chemical Research in Toxicology, 2024).

What was measured:
[1] = Pattern of oxidative metabolites in porcine LMs by HR-MS; format: in vitro ADME, pig; conditions: for Relative peak area of oxidative metabolite: porcine LMs, normalized to the sum of measured peak areas
Experimental: (§1) The kinetics of the phase I metabolism of AOH and AME was investigated by incubating human, rat (both 1 mg protein/mL), and porcine LMs (2 mg protein/mL) with 1, 10, 20, 50, and 100 μM AOH or 1, 10, 20, and 50 μM AME based on the protocol by Al-Subeihi et al.[34] The incubation solution contained a final concentration of 3 mM NADPH and 1 mM ascorbic acid in 200 mM Tris–HCl (pH 7.4). After preincubation (37 °C, 1 min, mixing at 250–300 rpm), the toxin stock was added in a 1:100 dilution, resulting in a total DMSO content of 1% and the desired toxin concentration. DMSO was selected for this assay because it is the least inhibitory of the solvents studied by Busby et al. on CYP1A1,[35] the primary enzyme involved in the hydroxylation of AOH and AME.[26] The well-established solubility of the test compounds in DMSO and DMSO-containing aqueous buffers facilitated laboratory work and ensured consistency with existing literature, thereby improving the comparability of results across studies, including those of Pfeiffer and colleagues.[25] In a preliminary investigation, incubation times of 5 and 10 min were chosen because they fall within the linear range of the transformation rate–time relationship, thereby ensuring initial rate conditions (Figure S1). When the selected incubation time (0–10 min) passed, one part of the sample was pipetted into two parts of ice-cold extraction solvent (acetonitrile–methanol, 1:1, v/v) for reaction termination. Subsequently, the samples were placed into the freezer (−20 °C) for at least an hour, centrifuged (15 min, 18,000g, 4 °C), and further diluted in methanol–water (3:7, v/v) prior to LC–MS measurements. In the solvent control, the toxin was substituted with DMSO in the incubation solution. Control incubations were performed without the cofactor NADPH or with heat-inactivated microsomes (98 °C, 10 min, mixing at 300 rpm).
Pooled high-resolution MS (HR-MS) samples were analyzed on a Vanquish UHPLC system (Thermo Fisher Scientific, Waltham, MA, USA) connected to a dual-pressure linear trap-quadrupole Orbitrap mass analyzer (Velos ETD, Thermo Fisher Scientific, Waltham, MA, USA). The heated ESI interface (source heater temperature: 400 °C) was operated in both positive and negative modes. The mobile and stationary phases were the same as those for the targeted analysis. The column compartment temperature was kept at 40 °C. A multistep gradient was applied at a flow rate of 0.4 mL/min and started with rinsing the column for 1 min at 10% eluent B. Then, the organic content was linearly raised to 100% until the 11th minute. Subsequently, the column was purged with 100% eluent B for two additional minutes. Finally, the initial eluent composition was reset between minutes 13 and 13.5, followed by a 2 min re-equilibration under these conditions, resulting in a total run time of 15.5 min. Data acquisition and evaluation were performed with the software Skyline (v. 21.1.0.146, MacCoss Lab, Department of Genome Sciences, University of Washington, Seattle, WA, USA), XCalibur (v. 2.2SP1.48), and Chromeleon (v. 7.2.6.; both Thermo Fisher Scientific, Waltham, MA, USA).
As no analytical standards are currently available for the hydroxy (OH) metabolites of AOH and AME, an Alternaria reference mixture containing 4-OH-AOH and 4-OH-AME was used to enable associating peaks with their respective phase I metabolites.

[2] = test system: esophageal cells; design: method as in PMID 27422292; conditions: cited from earlier work
[3] = Pattern of oxidative metabolites in rat LMs by HR-MS; format: in vitro ADME, Sprague–Dawley rat; conditions: rat LMs incubated with AME
Experimental: The kinetics of the phase I metabolism of AOH and AME was investigated by incubating human, rat (both 1 mg protein/mL), and porcine LMs (2 mg protein/mL) with 1, 10, 20, 50, and 100 μM AOH or 1, 10, 20, and 50 μM AME based on the protocol by Al-Subeihi et al.[34] The incubation solution contained a final concentration of 3 mM NADPH and 1 mM ascorbic acid in 200 mM Tris–HCl (pH 7.4). After preincubation (37 °C, 1 min, mixing at 250–300 rpm), the toxin stock was added in a 1:100 dilution, resulting in a total DMSO content of 1% and the desired toxin concentration. DMSO was selected for this assay because it is the least inhibitory of the solvents studied by Busby et al. on CYP1A1,[35] the primary enzyme involved in the hydroxylation of AOH and AME.[26] The well-established solubility of the test compounds in DMSO and DMSO-containing aqueous buffers facilitated laboratory work and ensured consistency with existing literature, thereby improving the comparability of results across studies, including those of Pfeiffer and colleagues.[25] […]
Pooled high-resolution MS (HR-MS) samples were analyzed on a Vanquish UHPLC system (Thermo Fisher Scientific, Waltham, MA, USA) connected to a dual-pressure linear trap-quadrupole Orbitrap mass analyzer (Velos ETD, Thermo Fisher Scientific, Waltham, MA, USA). […]

[4] = Pattern of oxidative metabolites in human LMs by HR-MS; format: in vitro ADME; conditions: human LMs incubated with AME
Experimental: as §1
Pooled high-resolution MS (HR-MS) samples were analyzed on a Vanquish UHPLC system (Thermo Fisher Scientific, Waltham, MA, USA) connected to a dual-pressure linear trap-quadrupole Orbitrap mass analyzer (Velos ETD, Thermo Fisher Scientific, Waltham, MA, USA). The heated ESI interface (source heater temperature: 400 °C) was operated in both positive and negative modes. The mobile and stationary phases were the same as those for the targeted analysis. The column compartment temperature was kept at 40 °C. A multistep gradient was applied at a flow rate of 0.4 mL/min and started with rinsing the column for 1 min at 10% eluent B. Then, the organic content was linearly raised to 100% until the 11th minute. Subsequently, the column was purged with 100% eluent B for two additional minutes. […]

[5] = Phase I metabolism kinetics (parent toxin loss) in NADPH-fortified porcine liver microsomes, LC-MS/MS; format: in vitro ADME, pig; conditions: for microsomal CLint: female, Large White, pig, liver microsomes, pH 7.4, porcine LMs, read-out: CLint (intrinsic clearance); for Concentration decrease: porcine LMs
Experimental: (§2) Pooled human LMs and pooled Sprague–Dawley rat hepatic microsomes, both originating from male donors, were purchased from Sigma-Aldrich (St. Louis, MO, USA) and Gibco, Thermo Fisher Scientific (Waltham, MA, USA), respectively. Porcine LMs were prepared according to an in-house-developed protocol based on the publication of Knights et al.[32] The liver of an approximately four-month-old female “Large White” (or “German Edelschwein”) pig was obtained from a local slaughterhouse. After slaughtering, the liver was placed on ice for about an hour, kept in ice-cold 50 mM tris(hydroxymethyl)aminomethane hydrochloride (Tris–HCl) (pH 7.4) for an additional hour while being transported, and processed immediately.
as §1
(§3) The quantification of selected analytes using external calibration (MS parameters listed in Supporting Information Table S1) was conducted on a high-performance liquid chromatographic system (Dionex UltiMate 3000 UHPLC, Dionex Softron GmbH, Germering, Germany) coupled to a triple quadrupole mass spectrometer (TSQ Vantage, Thermo Fisher Scientific, Waltham, MA, USA), equipped with a heated electrospray ionization (ESI) interface. The applied analytical method is based on Puntscher et al.[28],[36] with slight modifications, which are specified below.
(§4) In brief, the Ascentis Express C18 column (10 cm × 2.1 mm, 2.7 μm, Supelco, Munich, DE), equipped with the Phenomenex SecurityGuard (C18 Cartridges, 4 × 2.0 mm ID, Phenomenex Ltd. Deutschland, Aschaffenburg, Germany), served as the stationary phase. Eluent A was aqueous ammonium acetate (5 mM, pH adjusted to 8.6 with a 25% ammonia solution), and eluent B was methanol. During the first minute, the column was kept at 30% eluent B. Subsequently, the eluent B content was linearly raised to 100% within 6 min. Thereafter, the column was washed with 100% eluent B for 1.5 min. Lastly, the column was re-equilibrated at the initial conditions, reaching an overall run time of 10 min. The autosampler compartment was kept at 10 °C, while the column oven temperature was maintained at 30 °C. […]

[6] = Phase I metabolism kinetics (parent toxin loss) in NADPH-fortified rat liver microsomes, LC-MS/MS; format: in vitro ADME, Sprague–Dawley rat; conditions: for microsomal CLint: male, Sprague-Dawley, rat, liver microsomes, pH 7.4, rat LMs, read-out: CLint (intrinsic clearance); for Concentration decrease: rat LMs
Experimental: as §2, §1, §3, §4

[7] = Phase I metabolism kinetics (parent toxin loss) in NADPH-fortified human liver microsomes, LC-MS/MS; format: in vitro ADME; conditions: for microsomal CLint: human, pH 7.4, human LMs, read-out: CLint (intrinsic clearance)
Experimental: as §2, §1, §3, §4

[8] = oral administration, rats; cited from earlier work
[9] = Caco-2 cell monolayers; cited from earlier work
[10] = Michaelis–Menten model, ratio Vmax/Km
[11] = linear regression, lower concentration range
[12] = 10 min incubation with 10 μM AME

Cc1cc(O)c(O)c2oc(=O)c3c(O)cc(O)cc3c12 [4-OH-AOH]
relative abundance among phase I metabolites (in words) ([1]; porcine LMs incubated with AOH): primary oxidative metabolite | Relative peak area of oxidative metabolite ([1]; 10 min incubation with 10 μM AOH): 50% | genotoxic effects compared with parent compound [2]: less pronounced genotoxic effects

COc1cc2c(c(O)c1O)c(=O)oc1cc(O)cc(C)c12 [8-OH-AME]
relative abundance among phase I metabolites (in words) [3]: main metabolites | relative abundance among phase I metabolites (in words) [4]: small amounts

Cc1cc(O)cc2oc(=O)c3c(O)c(O)c(O)cc3c12 [8-OH-AOH]
relative abundance among phase I metabolites (in words) ([1]; porcine LMs incubated with AOH): small amounts

COc1cc(O)c2c(=O)oc3cc(O)cc(C)c3c2c1 [AME, alternariol 9-O-monomethyl ether]
microsomal CLint [5, 10]: 19.5 µL/min/mg | microsomal CLint [5, 11]: 19 µL/min/mg | Concentration decrease ([5]; 1 µM toxin, 5 min): 16% | Concentration decrease ([5]; 1 µM toxin, 10 min): 38% | Concentration decrease ([5]; 10 µM toxin, 5 min): 13% | Concentration decrease ([5]; 10 µM toxin, 10 min): 24% | Concentration decrease ([5]; 20 µM toxin, 5 min): 19% | Concentration decrease ([5]; 20 µM toxin, 10 min): 30% | Concentration decrease ([5]; 50 µM toxin, 5 min): 20% | Concentration decrease ([5]; 50 µM toxin, 10 min): 27% | microsomal CLint [6, 10]: 45.2 µL/min/mg | microsomal CLint [6, 11]: 46.2 µL/min/mg | Concentration decrease ([6]; 1 µM toxin, 5 min): 28% | Concentration decrease ([6]; 1 µM toxin, 10 min): 43% | Concentration decrease ([6]; 10 µM toxin, 5 min): 24% | Concentration decrease ([6]; 10 µM toxin, 10 min): 48% | Concentration decrease ([6]; 20 µM toxin, 5 min): 20% | Concentration decrease ([6]; 20 µM toxin, 10 min): 48% | Concentration decrease ([6]; 50 µM toxin, 5 min): 17% | Concentration decrease ([6]; 50 µM toxin, 10 min): 48% | Concentration decrease ([7]; human LMs, 1 µM toxin, 5 min): 35% | Concentration decrease ([7]; human LMs, 1 µM toxin, 10 min): 59% | Concentration decrease ([7]; human LMs, 10 µM toxin, 5 min): 26% | Concentration decrease ([7]; human LMs, 10 µM toxin, 10 min): 19% | Concentration decrease ([7]; human LMs, 20 µM toxin, 5 min): 8% | Concentration decrease ([7]; human LMs, 20 µM toxin, 10 min): 26% | Concentration decrease ([7]; human LMs, 50 µM toxin, 5 min): 2% | Concentration decrease ([7]; human LMs, 50 µM toxin, 10 min): 47% | Vmax (maximum transformation rate) ([7]; human LMs, within 10 min, Michaelis–Menten model): 772 pmol/mg/min | microsomal CLint ([7]; male, liver microsomes, Michaelis–Menten model, ratio Vmax/Km): 26.3 µL/min/mg | microsomal CLint ([7]; male, liver microsomes, linear regression, lower concentration range): 15.8 µL/min/mg | Km ([7]; male, liver microsomes, pH 7.4, human LMs 1 mg protein/mL, NADPH, within 10 min, Michaelis–Menten model, read-out: Km (Michaelis constant)): 29.4 µM | absorbed fraction [8]: less than 10% | intestinal absorption [9]: limited intestinal absorption

COc1cc(O)c2c(=O)oc3cc(O)c(O)c(C)c3c2c1 [2-OH-AME]
relative abundance among phase I metabolites (in words) ([1]; porcine LMs incubated with AME): main metabolites | Relative peak area of oxidative metabolite [1, 12]: 30% | relative abundance among phase I metabolites (in words) [4]: most abundant

COc1cc(O)c2c(=O)oc3c(O)c(O)cc(C)c3c2c1 [4-OH-AME]
Relative peak area of oxidative metabolite [1, 12]: less than 20% | relative abundance among phase I metabolites (in words) [4]: most abundant | genotoxic effects compared with parent compound [2]: less pronounced genotoxic effects
